The record followed here is patent US20260035339A1, “TETRAHYDRONAPHTHALENE DERIVATIVE” (ATRANSEN PHARMA LTD., priority 2022, published 2026).

The test system of assay [1] is Mouse triple negative breast cancer cells 4T1 and mouse colorectal cancer cells CT26. In words: BNCT-enhancing effect using mouse allograft tumor model. It is filed as in vivo, BALB/c mice. The following applies: Group 3: 400 mg/kg L-[10B]BPA i.v., solvent instead of Example 1-45; neutron rays 5 MW for 30 minutes. The protocol:
Mouse triple negative breast cancer cells 4T1 and mouse colorectal cancer cells CT26 were plate-cultured and then transplanted subcutaneously into the lower limbs of BALB/c mice. After 1 week, 400 mg/kg of L-[10B]BPA or a solvent as a control was intravenously administered through the tail vein. In Group 1, the compound of Example 1-45 was administered intravenously at a dose of 25 mg/kg after 1 hour and 1.5 hours from the administration of L-[10B]BPA. In Group 2, the solvent was administered instead of L-[10B]BPA, and after 1 hour and 1.5 hours, the compound of Example 1-45 obtained in the present invention was administered intravenously at a dose of 25 mg/kg. In Group 3, the solvent was administered intravenously instead of the compound of Example 1-45 after 1 hour and 1.5 hours from the administration of L-[10B]BPA. For Groups 1, 2, and 3, the lower limbs were irradiated with neutron rays under anesthesia after 2.5 hours from L-[10B]BPA administration or solvent administration as the control (5 MW for 30 minutes). The tumors were excised after 11 days from irradiation and the volumes thereof were compared.

For assay [2], the system named is Human breast cancer cells MCF7. Description: BNCT-enhancing effect by L-BPA confinement using cultured cells (colony formation after neutron irradiation). It is filed as cell-based. Particulars: MCF7 loaded with 100 μM L-[10B]BPA, not treated with Example 1-1; neutron rays 5 MW for 4 minutes. The method, then:
Human breast cancer cells MCF7 were plate-cultured in an RPMI medium for 48 hours, then replaced with an RPMI medium containing 100 μM of L-[10B]BPA, and cultured for 15 minutes to allow the L-[10B]BPA to be taken up in the cells. After washing with HBSS, the cells were cultured in an RPMI medium for 60 minutes, and after further washing with HBSS, the cells were peeled off and stored in HBSS at room temperature for 1.5 hours ((−) in FIG. 3A). L-BPA was taken up in the cells, washed with HBSS and then cultured in an RPMI medium containing the compound of Example 1-1 (10 μM) obtained in the present invention for 60 minutes, and after further washing with HBSS, the cells were peeled off and stored in HBSS at room temperature for 1.5 hours ((+) in FIG. 3A). The cells were cultured in an RPMI medium containing no L-[10B]BPA for 15 minutes, and after washing with HBSS, the cells were peeled off and stored in HBSS at room temperature for 1.5 hours ((No BPA Hot control) in FIG. 3A). These three cell samples were irradiated with neutron rays (5 MW for 4 minutes). After irradiation, in order to measure viable cells, the cells were plate-cultured and the number of colonies generated after 2 weeks was measured. The number of viable cells was evaluated as surviving fraction (%) (FIG. 3A).

Regarding `N[C@@H](Cc1ccc(B(O)O)cc1)C(=O)O` [L-[10B]BPA, L-boronophenylalanine, reference compound], the “BNCT effect of L-[10B]BPA without compound (tumor volume 11 days after irradiation)” value in assay [1] was “no BNCT effect was obtained”. The “cell death caused by neutron irradiation, L-[10B]BPA without compound treatment” value in assay [2] is listed as “about No BPA Hot control”.
